# In patent US20240398773A1, “COMPOSITIONS COMPRISING OTESECONAZOLE” (Mycovia Pharmaceuticals, Inc., priority 2021, published 2024):
# Tested on: Candida species
# Assay: Phase 2a dose-ranging study in moderate-to-severe acute VVC, effective therapeutic cure
# Type: in vivo, human
# Settings: comparator arm, single dose of fluconazole 150 mg; Per Protocol population
# Method: Oteseconazole has previously been evaluated in a Phase 2a multi-center, randomized, double-blind, active-controlled, parallel-group, dose-ranging study in patients with moderate-to-severe acute VVC. A total of 55 subjects with moderate-to-severe acute VVC (severity score ≥6 and a positive fungal KOH test) participated in the study across 4 dose groups: 1) oteseconazole 300 mg qd for 3 days: 2) 600 mg qd for 3 days: 3) 600 mg bid for 3 days; or 4) a single dose of fluconazole 150 mg followed by matching placebo. […] No safety signals of clinical concern were observed from the safety assessments.
# The efficacy of oteseconazole in the treatment of moderate-to-severe acute VVC was evaluated at the TOC visit in the Per Protocol population at the Day 28 test of cure (TOC) visit was, 87%, 86%, 86%, and 75% of subjects receiving the low, mid-, or high-dose oteseconazole or comparator arm of fluconazole, respectively, achieved an effective therapeutic cure (defined as having a total clinical signs and symptoms severity score of ≤1 and a negative culture for Candida species) in the Per Protocol population
structure (smiles),measurement,value
"OC(Cn1cncn1)(Cn1cncn1)c1ccc(F)cc1F [fluconazole, reference compound]",subjects achieving effective therapeutic cure at Day 28 TOC visit,75%
